From patent publication US10870647B2, “Imidazopyridine derivative, method for preparing same, and pharmaceutical composition containing same as active ingredient for preventing or treating cancer” (DAEGU-GYEONGBUK MEDICAL INNOVATION FOUNDATION, priority 2016, dated 2020)

Key:
Assay in all cases: Kinase selectivity, scanMAX Kinase assay panel (DiscoverX), % control at 1 uM
Type in all cases: binding
[1] = target: T1, scanMAX Kinase assay panel (Homo sapiens, UniProt Q9UF33); conditions: EPHA6; 1 uM; read-out: Percent Control (%)
T1 construct: purchased DiscoverX
T1 sequence (Q9UF33 23-1036): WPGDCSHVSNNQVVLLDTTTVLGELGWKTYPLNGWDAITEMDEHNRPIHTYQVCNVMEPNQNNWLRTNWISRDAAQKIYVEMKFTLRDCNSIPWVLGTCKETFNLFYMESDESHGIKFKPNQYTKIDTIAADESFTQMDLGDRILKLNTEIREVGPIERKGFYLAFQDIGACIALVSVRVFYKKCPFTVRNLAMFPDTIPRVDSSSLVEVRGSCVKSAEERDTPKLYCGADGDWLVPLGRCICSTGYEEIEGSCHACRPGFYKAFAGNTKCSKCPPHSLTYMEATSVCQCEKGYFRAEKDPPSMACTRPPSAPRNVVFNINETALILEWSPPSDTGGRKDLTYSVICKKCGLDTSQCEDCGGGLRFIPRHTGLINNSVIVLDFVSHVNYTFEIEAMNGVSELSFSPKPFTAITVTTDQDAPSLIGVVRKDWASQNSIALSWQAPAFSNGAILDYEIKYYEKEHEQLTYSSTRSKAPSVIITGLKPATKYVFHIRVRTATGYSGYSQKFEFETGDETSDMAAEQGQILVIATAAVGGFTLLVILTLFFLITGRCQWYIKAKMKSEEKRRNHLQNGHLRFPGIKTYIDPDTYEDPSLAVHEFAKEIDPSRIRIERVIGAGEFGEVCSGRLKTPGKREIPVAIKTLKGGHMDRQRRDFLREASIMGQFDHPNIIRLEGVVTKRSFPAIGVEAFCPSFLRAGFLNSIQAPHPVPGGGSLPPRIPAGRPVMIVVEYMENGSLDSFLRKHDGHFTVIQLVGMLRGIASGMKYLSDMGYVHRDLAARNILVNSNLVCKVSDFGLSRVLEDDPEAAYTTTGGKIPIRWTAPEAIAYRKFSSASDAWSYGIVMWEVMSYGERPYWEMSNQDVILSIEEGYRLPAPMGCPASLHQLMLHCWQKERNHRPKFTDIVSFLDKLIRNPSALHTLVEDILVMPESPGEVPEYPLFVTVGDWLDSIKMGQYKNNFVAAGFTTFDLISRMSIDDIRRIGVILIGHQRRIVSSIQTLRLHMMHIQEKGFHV
Summary of the method: (§1)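 Single-point screen at 1 uM compound in DMSO. Lower % control means stronger inhibition, with the cutoff for activity set at <35%.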

[2] = target: T2, scanMAX Kinase assay panel (Homo sapiens, UniProt P07948); conditions: LYN; 1 uM; read-out: Percent Control (%)
T2 construct: purchased DiscoverX
T2 sequence (P07948 whole entry): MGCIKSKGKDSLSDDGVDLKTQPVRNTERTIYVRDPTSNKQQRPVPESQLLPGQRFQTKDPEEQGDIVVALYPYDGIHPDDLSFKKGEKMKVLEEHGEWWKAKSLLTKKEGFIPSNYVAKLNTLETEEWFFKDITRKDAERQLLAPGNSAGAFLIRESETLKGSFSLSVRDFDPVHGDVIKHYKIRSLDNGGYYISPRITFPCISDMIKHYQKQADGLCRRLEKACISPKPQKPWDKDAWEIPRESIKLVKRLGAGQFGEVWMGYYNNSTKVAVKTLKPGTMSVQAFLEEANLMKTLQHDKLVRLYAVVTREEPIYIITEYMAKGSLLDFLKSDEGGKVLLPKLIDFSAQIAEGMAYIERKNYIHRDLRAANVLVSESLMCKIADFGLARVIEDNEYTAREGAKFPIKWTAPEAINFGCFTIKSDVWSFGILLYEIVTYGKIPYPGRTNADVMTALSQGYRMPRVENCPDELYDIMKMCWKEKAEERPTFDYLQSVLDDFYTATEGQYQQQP
Summary of the method: as §1

[3] = target: T3, scanMAX Kinase assay panel (Homo sapiens, UniProt Q6DT37); conditions: DMPK2; 1 uM; read-out: Percent Control (%)
T3 construct: purchased DiscoverX
T3 sequence (Q6DT37 whole entry): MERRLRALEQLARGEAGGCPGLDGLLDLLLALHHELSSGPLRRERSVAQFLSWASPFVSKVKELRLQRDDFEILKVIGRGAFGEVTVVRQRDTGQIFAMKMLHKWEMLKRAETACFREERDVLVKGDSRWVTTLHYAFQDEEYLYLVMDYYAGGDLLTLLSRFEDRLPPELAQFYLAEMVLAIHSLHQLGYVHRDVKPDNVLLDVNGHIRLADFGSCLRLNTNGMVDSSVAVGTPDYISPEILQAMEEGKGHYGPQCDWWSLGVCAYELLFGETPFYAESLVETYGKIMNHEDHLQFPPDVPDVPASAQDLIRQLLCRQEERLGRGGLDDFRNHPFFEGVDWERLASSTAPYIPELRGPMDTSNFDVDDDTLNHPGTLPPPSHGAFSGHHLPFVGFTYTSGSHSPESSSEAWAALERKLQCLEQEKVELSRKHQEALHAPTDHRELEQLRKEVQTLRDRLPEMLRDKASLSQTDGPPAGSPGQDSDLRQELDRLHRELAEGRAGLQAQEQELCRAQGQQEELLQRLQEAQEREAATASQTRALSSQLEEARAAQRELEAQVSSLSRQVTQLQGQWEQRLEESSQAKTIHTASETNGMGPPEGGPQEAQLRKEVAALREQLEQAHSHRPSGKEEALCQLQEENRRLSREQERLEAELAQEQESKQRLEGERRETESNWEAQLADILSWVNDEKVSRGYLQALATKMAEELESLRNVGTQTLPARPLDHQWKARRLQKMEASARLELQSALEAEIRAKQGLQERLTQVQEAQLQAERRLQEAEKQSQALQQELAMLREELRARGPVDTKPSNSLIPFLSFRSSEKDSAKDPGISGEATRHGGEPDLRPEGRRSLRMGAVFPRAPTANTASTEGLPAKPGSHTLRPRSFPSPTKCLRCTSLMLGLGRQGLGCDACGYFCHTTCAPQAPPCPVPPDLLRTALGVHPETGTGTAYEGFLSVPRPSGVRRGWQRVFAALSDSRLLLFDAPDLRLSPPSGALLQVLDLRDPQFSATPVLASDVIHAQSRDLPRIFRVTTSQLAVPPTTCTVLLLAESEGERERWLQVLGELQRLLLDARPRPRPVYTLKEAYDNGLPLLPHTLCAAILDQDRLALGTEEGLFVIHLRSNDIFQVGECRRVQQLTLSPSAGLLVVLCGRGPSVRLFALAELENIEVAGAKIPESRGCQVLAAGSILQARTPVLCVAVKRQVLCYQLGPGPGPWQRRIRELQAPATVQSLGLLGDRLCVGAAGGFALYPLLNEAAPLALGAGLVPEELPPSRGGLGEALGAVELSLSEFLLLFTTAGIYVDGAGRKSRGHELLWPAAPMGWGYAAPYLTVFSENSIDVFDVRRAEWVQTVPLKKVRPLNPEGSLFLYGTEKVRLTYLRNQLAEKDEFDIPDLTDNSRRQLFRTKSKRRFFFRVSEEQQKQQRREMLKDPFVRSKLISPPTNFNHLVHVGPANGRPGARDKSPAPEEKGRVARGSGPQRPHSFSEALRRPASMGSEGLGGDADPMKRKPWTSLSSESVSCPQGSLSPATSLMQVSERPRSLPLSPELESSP
Summary of the method: as §1

[4] = target: T4, scanMAX Kinase assay panel (Homo sapiens, UniProt Q9H093); conditions: SNARK; 1 uM; read-out: Percent Control (%)
T4 construct: purchased DiscoverX
T4 sequence (Q9H093 1-628): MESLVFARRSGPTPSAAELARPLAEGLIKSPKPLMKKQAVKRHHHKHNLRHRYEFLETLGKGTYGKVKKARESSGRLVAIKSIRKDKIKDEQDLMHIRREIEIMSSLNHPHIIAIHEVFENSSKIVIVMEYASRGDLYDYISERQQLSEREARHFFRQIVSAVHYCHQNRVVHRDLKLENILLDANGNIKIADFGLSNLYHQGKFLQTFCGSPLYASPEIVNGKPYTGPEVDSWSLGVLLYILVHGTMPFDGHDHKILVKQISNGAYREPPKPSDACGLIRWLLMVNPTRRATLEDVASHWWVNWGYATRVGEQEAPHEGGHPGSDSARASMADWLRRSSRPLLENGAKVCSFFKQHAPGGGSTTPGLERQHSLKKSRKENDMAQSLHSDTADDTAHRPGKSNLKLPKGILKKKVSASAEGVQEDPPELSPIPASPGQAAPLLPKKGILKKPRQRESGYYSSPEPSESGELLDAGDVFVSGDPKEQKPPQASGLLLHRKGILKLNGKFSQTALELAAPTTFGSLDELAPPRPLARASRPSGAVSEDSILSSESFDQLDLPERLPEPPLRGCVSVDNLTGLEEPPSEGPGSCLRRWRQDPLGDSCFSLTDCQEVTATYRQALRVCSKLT
Summary of the method: as §1

[5] = target: T5, scanMAX Kinase assay panel (Homo sapiens, UniProt P00519, M351T); conditions: ABL1 (M351T)-phosphorylated; 1 uM; read-out: Percent Control (%)
T5 construct: purchased DiscoverX
Summary of the method: as §1

[6] = target: T6, scanMAX Kinase assay panel (Homo sapiens, UniProt P29376); conditions: LTK; 1 uM; read-out: Percent Control (%)
T6 construct: purchased DiscoverX
T6 sequence (P29376 17-864): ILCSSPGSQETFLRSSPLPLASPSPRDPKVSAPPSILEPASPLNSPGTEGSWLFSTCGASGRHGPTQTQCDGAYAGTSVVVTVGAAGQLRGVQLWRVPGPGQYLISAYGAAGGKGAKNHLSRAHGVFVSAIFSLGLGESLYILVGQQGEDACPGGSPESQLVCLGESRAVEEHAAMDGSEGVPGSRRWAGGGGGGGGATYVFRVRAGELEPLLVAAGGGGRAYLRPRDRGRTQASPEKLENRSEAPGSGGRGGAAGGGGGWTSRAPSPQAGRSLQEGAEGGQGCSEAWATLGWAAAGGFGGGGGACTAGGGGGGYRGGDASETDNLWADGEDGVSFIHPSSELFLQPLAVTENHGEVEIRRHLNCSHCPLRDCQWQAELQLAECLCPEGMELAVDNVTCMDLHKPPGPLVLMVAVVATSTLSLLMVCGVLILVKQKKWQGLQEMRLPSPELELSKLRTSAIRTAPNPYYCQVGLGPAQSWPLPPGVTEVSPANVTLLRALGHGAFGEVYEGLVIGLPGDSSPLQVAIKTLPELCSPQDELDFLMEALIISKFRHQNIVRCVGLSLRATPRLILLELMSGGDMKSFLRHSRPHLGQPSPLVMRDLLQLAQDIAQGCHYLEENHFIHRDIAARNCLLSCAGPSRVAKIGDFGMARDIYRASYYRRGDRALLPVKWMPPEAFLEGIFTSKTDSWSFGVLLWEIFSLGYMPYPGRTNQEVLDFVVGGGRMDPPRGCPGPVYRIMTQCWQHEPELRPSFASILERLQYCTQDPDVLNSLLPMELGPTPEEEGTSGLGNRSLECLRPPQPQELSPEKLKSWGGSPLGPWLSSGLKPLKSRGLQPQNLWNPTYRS
Summary of the method: as §1

SMILES	remaining binding at 1 µM [1] [%]	remaining binding at 1 µM [2] [%]	remaining binding at 1 µM [3] [%]	remaining binding at 1 µM [4] [%]	remaining binding at 1 µM [5] [%]	remaining binding at 1 µM [6] [%]
Cc1ccc(NC(=O)C2(C(=O)Nc3ccc(F)cc3)CC2)cc1C#Cc1cnc2c(Nc3cnn(C(C)C)c3)cccn12 [Example 78]	90	84	100	68	59	94
Cc1cn(-c2cc(NC(=O)c3ccc(C)c(C#Cc4cnc5c(Nc6cnn(C)c6)cccn45)c3)cc(C(F)(F)F)c2)cn1 [Example 12, 4-methyl-N-(3-(4-methyl-1H-imidazol-1-yl)-5-(trifluoromethyl)phenyl)-3-((8-((1-methyl-1H-pyrazol-4-yl)amino)imidazo[1,2-a]pyridin-3-yl)ethynyl)benzamide]	19	3	92	100	11	12
Cc1ccc(C(=O)Nc2ccc(CN3CCN(C)CC3)c(C(F)(F)F)c2)cc1C#Cc1cnc2c(Nc3cnn(C)c3)cccn12 [Example 1, 4-methyl-3-((8-((1-methyl-1H-pyrazol-4-yl)amino)imidazo[1,2-a]pyridin-3-yl)ethynyl)-N-(4-((4-methylpiperazin-1-yl)methyl)-3-(trifluoromethyl)phenyl)benzamide]	2	0	100	73	1	9
